ChEMBL document CHEMBL1154504, “Discovery and development of heat shock protein 90 inhibitors” (Bioorg Med Chem, 2009)
Converted amounts (≈) assume the structure as drawn.

Experiments:
MCF7 [1] = test: Cytotoxicity against human MCF7 cells; format: functional, cell-based
[2] = biological target: T1, Heat shock protein HSP 90-beta (Homo sapiens, UniProt P08238); test: Binding affinity to Hsp90 by fluorescence polarization assay
HCT-116 [3] = test: cells; details: Homo sapiens
Description: Antiproliferative against human HCT116 cells

HCT-116 [4] = test: Antitumor activity in human HCT116 cells xenografted mouse assessed as inhibition of tumor growth at 100 mg/kg, ip; format: functional; details: HCT-116, ip, route intraperitoneal, read-out: GI
[5] = biological target: T1, Heat shock protein HSP 90-beta; test: Inhibition of Hsp90 in human MCF7 cells assessed as Her2 degradation; format: cell-based
[6] = biological target: ATP-dependent molecular chaperone HSP82 (Saccharomyces cerevisiae S288c, UniProt P02829); test: Binding affinity to yeast Hsp90 ATPase activity
Chain of ATP-dependent molecular chaperone HSP82 (P02829 whole entry): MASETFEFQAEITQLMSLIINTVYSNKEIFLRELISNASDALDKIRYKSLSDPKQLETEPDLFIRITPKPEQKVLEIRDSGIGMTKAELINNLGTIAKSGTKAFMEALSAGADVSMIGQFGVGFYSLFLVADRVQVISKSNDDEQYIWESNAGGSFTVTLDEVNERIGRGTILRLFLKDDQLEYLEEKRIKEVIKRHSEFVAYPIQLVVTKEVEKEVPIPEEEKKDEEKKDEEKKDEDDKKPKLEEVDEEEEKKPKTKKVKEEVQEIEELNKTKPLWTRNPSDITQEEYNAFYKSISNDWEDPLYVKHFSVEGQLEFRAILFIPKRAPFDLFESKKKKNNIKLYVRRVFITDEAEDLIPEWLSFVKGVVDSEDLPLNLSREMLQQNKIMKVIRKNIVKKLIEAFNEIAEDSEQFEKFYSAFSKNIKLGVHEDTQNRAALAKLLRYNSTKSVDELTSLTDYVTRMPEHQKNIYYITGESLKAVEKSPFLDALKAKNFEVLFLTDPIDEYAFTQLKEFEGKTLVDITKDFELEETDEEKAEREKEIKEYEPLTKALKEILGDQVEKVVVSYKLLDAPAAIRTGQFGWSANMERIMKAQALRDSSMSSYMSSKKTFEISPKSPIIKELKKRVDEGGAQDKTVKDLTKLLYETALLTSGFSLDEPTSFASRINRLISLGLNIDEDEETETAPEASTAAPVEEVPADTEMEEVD

[7] = Inhibition of Rous sarcoma virus v-Src
[8] = biological target: T1, Heat shock protein HSP 90-beta; test: Inhibition of Hsp90 in human SKBR3 cells assessed as Her2 degradation; format: cell-based, SK-BR-3
[9] = Solubility in water; format: physicochemical
NCI-N87 [10] = test: Antitumor activity in human NCI-N87 cells xenografted mouse assessed as inhibition of tumor growth at 200 mg/kg, po administered daily once for 5 days per week measured after 30 days; format: functional; details: read-out: GI
[11] = biological target: Receptor tyrosine-protein kinase erbB-2 (Homo sapiens, UniProt P04626); test: Inhibition of Her2 in human SKBR3 cells; format: cell-based, SK-BR-3
Chain of Receptor tyrosine-protein kinase erbB-2 (P04626 whole entry): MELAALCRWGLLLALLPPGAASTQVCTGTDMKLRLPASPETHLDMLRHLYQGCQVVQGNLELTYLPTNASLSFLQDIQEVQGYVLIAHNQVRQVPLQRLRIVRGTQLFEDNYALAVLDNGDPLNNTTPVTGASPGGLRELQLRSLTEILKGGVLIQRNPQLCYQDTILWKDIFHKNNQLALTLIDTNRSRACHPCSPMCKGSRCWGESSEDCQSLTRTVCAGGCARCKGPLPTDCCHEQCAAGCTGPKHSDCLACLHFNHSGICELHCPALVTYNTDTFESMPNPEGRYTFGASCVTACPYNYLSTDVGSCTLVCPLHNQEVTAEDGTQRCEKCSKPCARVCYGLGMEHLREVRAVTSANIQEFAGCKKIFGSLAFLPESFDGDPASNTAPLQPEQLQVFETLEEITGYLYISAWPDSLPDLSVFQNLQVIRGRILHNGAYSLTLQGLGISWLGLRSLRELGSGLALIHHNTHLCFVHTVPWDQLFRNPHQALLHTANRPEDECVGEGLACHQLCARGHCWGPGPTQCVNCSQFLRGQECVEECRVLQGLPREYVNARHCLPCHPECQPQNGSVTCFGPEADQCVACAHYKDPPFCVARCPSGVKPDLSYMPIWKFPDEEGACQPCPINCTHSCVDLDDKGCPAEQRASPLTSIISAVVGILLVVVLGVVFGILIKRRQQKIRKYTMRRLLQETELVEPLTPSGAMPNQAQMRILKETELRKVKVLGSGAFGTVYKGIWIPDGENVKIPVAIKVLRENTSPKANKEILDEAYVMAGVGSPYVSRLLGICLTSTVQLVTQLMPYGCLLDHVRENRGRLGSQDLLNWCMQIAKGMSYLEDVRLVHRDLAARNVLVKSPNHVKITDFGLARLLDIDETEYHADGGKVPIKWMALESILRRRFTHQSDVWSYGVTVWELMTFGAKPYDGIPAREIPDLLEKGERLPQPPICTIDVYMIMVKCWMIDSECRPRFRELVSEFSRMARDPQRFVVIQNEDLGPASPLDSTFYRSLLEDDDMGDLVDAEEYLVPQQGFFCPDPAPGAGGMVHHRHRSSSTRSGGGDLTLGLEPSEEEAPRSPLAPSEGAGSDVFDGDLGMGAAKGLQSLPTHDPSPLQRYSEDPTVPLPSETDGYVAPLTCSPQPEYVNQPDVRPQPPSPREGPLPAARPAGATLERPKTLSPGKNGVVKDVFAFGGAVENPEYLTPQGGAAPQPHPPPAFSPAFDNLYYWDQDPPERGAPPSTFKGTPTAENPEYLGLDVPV

MCF7 [12] = test: Antitumor activity in human MCF7 cells xenografted mouse assessed as reduction of tumor burden at 200 mg/kg, ip administered alternative days; format: functional; set-up: scale not given: the % may be the effect or the level left; details: route intraperitoneal
[13] = biological target: T1, Heat shock protein HSP 90-beta; test: Inhibition of Hsp90
HCT-116 [14] = test: Antitumor activity in human HCT116 cells xenografted mouse assessed as inhibition of tumor growth at 50 mg/kg, ip; format: functional; details: HCT-116, ip, route intraperitoneal, read-out: GI
[15] = biological target: T1, Heat shock protein HSP 90-beta; test: Binding affinity to Hsp90 in human SKBR3 cells; format: cell-based, SK-BR-3
[16] = biological target: T1, Heat shock protein HSP 90-beta; test: Inhibition of Hsp90 assessed as Her2 degradation by cell based assay
NCI-N87 [17] = test: Antitumor activity in human NCI-N87 cells xenografted mouse assessed as inhibition of tumor growth at 60 mg/kg, po administered daily once for 5 days per week measured after 5 weeks; format: functional; details: read-out: GI
NCI-N87 [18] = test: Antitumor activity in human NCI-N87 cells xenografted mouse assessed as inhibition of tumor growth at 125 mg/kg, po administered daily once for 5 days per week measured after 5 weeks; format: functional; details: read-out: GI
cells = details: Homo sapiens, NCI60, read-out: GI
Description: Growth inhibition of human NCI60 cells at 13 nM

T1 sequence (P08238 whole entry): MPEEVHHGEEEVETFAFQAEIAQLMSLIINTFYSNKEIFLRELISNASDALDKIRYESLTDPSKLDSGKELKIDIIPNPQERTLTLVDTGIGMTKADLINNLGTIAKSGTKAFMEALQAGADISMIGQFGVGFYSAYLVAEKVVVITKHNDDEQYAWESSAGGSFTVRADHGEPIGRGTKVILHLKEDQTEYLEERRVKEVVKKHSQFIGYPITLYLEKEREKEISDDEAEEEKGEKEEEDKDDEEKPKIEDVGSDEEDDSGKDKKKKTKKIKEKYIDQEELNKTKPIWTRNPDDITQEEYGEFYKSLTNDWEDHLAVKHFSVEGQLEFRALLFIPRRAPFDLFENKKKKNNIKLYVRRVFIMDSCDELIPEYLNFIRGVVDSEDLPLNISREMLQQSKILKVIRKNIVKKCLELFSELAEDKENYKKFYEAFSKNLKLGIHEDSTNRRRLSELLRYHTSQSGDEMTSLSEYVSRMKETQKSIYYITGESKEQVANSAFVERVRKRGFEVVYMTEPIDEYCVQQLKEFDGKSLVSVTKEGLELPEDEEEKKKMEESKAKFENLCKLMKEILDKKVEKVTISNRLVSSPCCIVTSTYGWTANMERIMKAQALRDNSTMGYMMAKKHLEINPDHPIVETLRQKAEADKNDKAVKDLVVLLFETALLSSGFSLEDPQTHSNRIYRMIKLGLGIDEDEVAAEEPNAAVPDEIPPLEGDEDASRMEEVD

C[C@@H]1C[C@H]2O[C@@H]2/C=C\C=C\C(=O)Cc2c(Cl)c(O)cc(O)c2C(=O)O1 [RADICICOL]
IC50 (MCF7 [1]): 23 nM

CS(=O)(=O)c1ccc(CN2CCN(c3cn[nH]c3-c3cc(Cl)c(O)cc3O)CC2)cc1
IC50 [2]: 740 nM
GI50 (HCT-116 [3]): 3100 nM

CCNC(=O)c1noc(-c2cc(Cl)c(O)cc2O)c1-c1ccc(OC)cc1
inhibition in vivo at 100 mg/kg (HCT-116 [4]): 30%

Nc1ncnc2c1nc(Sc1nc3cccc(Cl)c3s1)n2CCNC1CC1
IC50 [5]: 110 nM

Cc1[nH]nc(-c2cc(Cl)c(O)cc2O)c1-c1ccc2c(c1)OCCO2
IC50 [6]: < 1000 nM
GI50 (HCT-116 [3]): 4000 nM

Oc1cc(O)c(-c2noc3ccc(NCCN4CCOCC4)cc23)cc1Cl
IC50 [2]: 30 nM

CCc1cc(-c2[nH]nc(C)c2-c2ccc3c(c2)OCCO3)c(O)cc1O
GI50 (HCT-116 [3]): 4100 nM

C[C@@H]1C[C@H]2O[C@@H]2\C=C/C=C/C(=N\OC(=O)N2CCCCC2)Cc2c(Cl)c(O)cc(O)c2C(=O)O1
IC50 [7]: 25 nM

CC(C)NCCCn1c(Cc2cc3c(cc2I)OCO3)nc2c(N)nc(F)nc21
IC50 [8]: 90 nM
EC50 [2]: 22 nM

COc1ccc(I)c(Sc2nc3c(N)ncnc3n2CCNCC(C)(C)C)c1
solubility [9]: > 10000 µg/mL
inhibition in vivo at 200 mg/kg (NCI-N87 [10]): 70%

CCCCn1c(Sc2nc3cccc(Cl)c3s2)nc2c(N)ncnc21
IC50 [5]: 180 nM

COc1ccc(I)c(Sc2nc3c(N)ncnc3n2CCCNC(C)(C)C)c1
solubility [9]: > 10000 µg/mL

C=CCNC1=C2C[C@@H](C)C[C@H](OC)[C@H](O)[C@@H](C)/C=C(\C)[C@H](OC(N)=O)[C@@H](OC)/C=C\C=C(/C)C(=O)NC(=CC1=O)C2=O [TANESPIMYCIN]
IC50 [11]: 31 nM
solubility [9]: 50 µg/mL (≈ 0.0854 mM)

C#CCCCn1c(Cc2cc(OC)c(OC)c(OC)c2Cl)nc2c(N)nc(F)nc21
Activity (MCF7 [12]): 72%

Oc1cc(O)c(-c2n[nH]cc2N2CCN(Cc3ccccc3)CC2)cc1Cl
GI50 (HCT-116 [3]): 6500 nM

Cc1nc(-c2c(-c3ccc(O)cc3O)noc2C(F)(F)F)cs1
IC50 [13]: 9000 nM

O=S(=O)(Nc1ccc(O)c(-c2c(O)ccc3ccccc23)c1)c1cc(Cl)ccc1Cl
GI50 (HCT-116 [3]): 29000 nM

CCNC(=O)c1noc(-c2cc(C(C)C)c(O)cc2O)c1-c1ccc(CN2CCOCC2)cc1 [LUMINESPIB]
inhibition in vivo at 50 mg/kg (HCT-116 [14]): 50%

C[C@H]1C[C@H]2O[C@@H]2CC/C=C/C(=O)Cc2c(Cl)c(O)cc(O)c2C(=O)O1 [POCHONIN A]
IC50 [13]: 90 nM

C[C@H]1CCCC(=O)CCCCCc2cc(O)cc(O)c2C(=O)O1 [ZEARALANONE]
IC50 [13]: 90 nM

CO[C@H]1C[C@H](C)Cc2cc(O)cc(c2)NC(=O)/C=C/CC[C@H](OC)[C@@H](OC(N)=O)/C(C)=C/[C@H](C)[C@H]1O
Kd [15]: 16 nM

C[C@@H]1C/C=C/CC/C=C/C(=O)Cc2c(Cl)c(O)cc(O)c2C(=O)O1 [POCHONIN D]
IC50 [13]: 80 nM

C#CCCCn1c(Sc2cc3c(cc2Br)OCO3)nc2c(N)ncnc21
EC50 [13]: 30 nM
IC50 [8]: 300 nM

COc1c(C)ncc(Cn2cnc3c(Cl)nc(N)nc32)c1C
IC50 [16]: 20 nM
inhibition in vivo at 60 mg/kg (NCI-N87 [17]): 83%
inhibition in vivo at 125 mg/kg (NCI-N87 [18]): 87%

CCNC(=O)c1noc(-c2cc(C(C)C)c(O)cc2O)c1-c1ccc(CN(CC)CC)cc1
GI50 (HCT-116 [3]): 6 nM

C[C@@H]1C[C@H]2C[C@@H]2/C=C\C=C\C(=O)Cc2c(Cl)c(O)cc(O)c2C(=O)O1 [CYCLOPROPARADICICOL]
IC50 (MCF7 [1]): 43 nM
ED50 [13]: 160 nM

CC(C)(C)CNCCn1c(Sc2nc3cccc(Cl)c3s2)nc2c(N)ncnc21
IC50 [5]: 35 nM

COC1=C2C[C@@H](C)C[C@H](OC)[C@H](O)[C@@H](C)/C=C(\C)[C@H](OC(N)=O)[C@@H](OC)/C=C\C=C(/C)C(=O)NC(=CC1=O)C2=O [GELDANAMYCIN]
inhibition of growth at 0.013 µM (cells): 50%

Cc1cc(C#Cc2ccccc2/C=N/N2CCOC2=O)nc(N)n1
Ki [2]: 4000 nM

C=CCNc1c(O)cc2c(O)c1C[C@@H](C)C[C@H](OC)[C@H](O)[C@@H](C)/C=C(\C)[C@H](OC(N)=O)[C@@H](OC)/C=C\C=C(/C)C(=O)N2.Cl [RETASPIMYCIN HYDROCHLORIDE]
solubility [9]: > 250000 µg/mL
